Assay: xn = mol fraction of the nth substance listed
Details: 100.7 kPa, Liquid; for viscosity: Falling or rolling sphere viscometry; for speed of sound: Frequency=3 MHz, Sing-around technique in a fixed-path interferometer; for mass density: Vibrating tube method

CCCC[n+]1ccn(C)c1.O=S(=O)([N-]S(=O)(=O)C(F)(F)F)C(F)(F)F + CCCCOC(C)=O
Details | mass density, 313.15 K [kg/m3] | speed of sound, 313.15 K [m/s] | speed of sound, 318.15 K [m/s] | viscosity, 313.15 K [mPa·s] | viscosity, 318.15 K [mPa·s]
x1 = 0.0252 | – | 1128.5 | 1108.2 | – | –
x1 = 0.0521 | – | 1127 | 1109.2 | – | –
x1 = 0.0754 | – | 1127.2 | 1109.6 | – | –
x1 = 0.11 | 987.68 | 1127.8 | 1110 | 0.96 | 0.8
x1 = 0.2089 | 1076.25 | 1133.2 | 1117.1 | 1.72 | 1.49
x1 = 0.2993 | 1142.16 | 1139.5 | 1124.6 | 2.81 | 2.35
x1 = 0.393 | 1199.24 | 1146.2 | – | 4.65 | 3.96
x1 = 0.4847 | 1246.74 | 1153.9 | – | 6.64 | 5.5
x1 = 0.5739 | 1286.33 | 1161 | – | 8.59 | 6.92
x1 = 0.687 | 1330.2 | 1170.2 | – | 12.16 | 9.96
x1 = 0.7791 | 1361.33 | 1178.5 | – | 15.96 | 13.17
x1 = 0.9056 | 1398.49 | 1188.4 | – | 22.61 | 18.87
x1 = 1 | 1422.37 | 1194.4 | – | 28.28 | 24.01
